# Assay results taken from US12258328B2, “6-membered heteroaryl-containing aminopyridine compounds as EGFR inhibitors” (YUHAN CORPORATION, priority 2021, dated 2025).
# Like-named read-outs stand apart in the source and are kept apart here.
# Legend:
# EGFR del19/C797S = EGFR del19/C797S (Homo sapiens, UniProt P00533, C797S/DEL746-750); assay: Biochemical EGFR kinase assay (Lance Ultra TR-FRET), double mutant del19/C797S
# How it was run: (§1)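 Step 1: compound in kinase buffer, 0.003–10 μM. Step 2: kinase reaction 1 h at room temperature. Step 4: TR-FRET read at 615/665 nm; IC50 calculated.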
# EGFR wildtype = EGFR wildtype (Homo sapiens, UniProt P00533); assay: Biochemical EGFR kinase assay (Lance Ultra TR-FRET), wildtype
# How it was run: as §1
# EGFR L858R/T790M/C797S = EGFR L858R/T790M/C797S (Homo sapiens, UniProt P00533, C797S/L858R/T790M); assay: Biochemical EGFR kinase assay (Lance Ultra TR-FRET), triple mutant L858R/T790M/C797S
# How it was run: as §1
# EGFR del19/T790M/C797S = EGFR del19/T790M/C797S (Homo sapiens, UniProt P00533, C797S/DEL746-750/T790M); assay: Biochemical EGFR kinase assay (Lance Ultra TR-FRET), triple mutant del19/T790M/C797S
# How it was run: as §1
# EGFR L858R/C797S = EGFR L858R/C797S (Homo sapiens, UniProt P00533, C797S/L858R); assay: Biochemical EGFR kinase assay (Lance Ultra TR-FRET), double mutant L858R/C797S
# How it was run: as §1
# [1] = ATP at Km, read-out: IC50 del19/C797S, Km ATP
# [2] = ATP at Km, read-out: IC50 WT, Km ATP
# [3] = ATP at Km, read-out: IC50 L858R/T790M/C797S, Km ATP
# [4] = IC50 L858R/T790M/C797S, 100 μM ATP
# [5] = ATP at Km, read-out: IC50 del19/T790M/C797S, Km ATP
# [6] = IC50 del19/T790M/C797S, 100 μM ATP
# [7] = ATP at Km, read-out: IC50 L858R/C797S, Km ATP
# [8] = Km ATP, read-out: IC50 del19/C797S (nM) Km ATP
# [9] = Km ATP, read-out: IC50 WT (nM) Km ATP
# [10] = Km ATP, read-out: IC50 L858R/T790M/C797S (nM) Km ATP
# [11] = Km ATP, read-out: IC50 del19/T790M/C797S (nM) Km ATP
# [12] = Km ATP, read-out: IC50 L858R/C797S (nM) Km ATP
# [13] = IC50 del19/C797S (nM) 100 μM ATP, 100 μM ATP
# [14] = IC50 WT (nM) 100 μM ATP, 100 μM ATP
# [15] = IC50 L858R/T790M/C797S (nM) 100 μM ATP, 100 μM ATP
# [16] = IC50 del19/T790M/C797S (nM) 100 μM ATP, 100 μM ATP
# [17] = IC50 L858R/C797S (nM) 100 μM ATP, 100 μM ATP
# EGFR del19/C797S, sequence (P00533 with tags, fused parts or gaps DEL746-750/C797S): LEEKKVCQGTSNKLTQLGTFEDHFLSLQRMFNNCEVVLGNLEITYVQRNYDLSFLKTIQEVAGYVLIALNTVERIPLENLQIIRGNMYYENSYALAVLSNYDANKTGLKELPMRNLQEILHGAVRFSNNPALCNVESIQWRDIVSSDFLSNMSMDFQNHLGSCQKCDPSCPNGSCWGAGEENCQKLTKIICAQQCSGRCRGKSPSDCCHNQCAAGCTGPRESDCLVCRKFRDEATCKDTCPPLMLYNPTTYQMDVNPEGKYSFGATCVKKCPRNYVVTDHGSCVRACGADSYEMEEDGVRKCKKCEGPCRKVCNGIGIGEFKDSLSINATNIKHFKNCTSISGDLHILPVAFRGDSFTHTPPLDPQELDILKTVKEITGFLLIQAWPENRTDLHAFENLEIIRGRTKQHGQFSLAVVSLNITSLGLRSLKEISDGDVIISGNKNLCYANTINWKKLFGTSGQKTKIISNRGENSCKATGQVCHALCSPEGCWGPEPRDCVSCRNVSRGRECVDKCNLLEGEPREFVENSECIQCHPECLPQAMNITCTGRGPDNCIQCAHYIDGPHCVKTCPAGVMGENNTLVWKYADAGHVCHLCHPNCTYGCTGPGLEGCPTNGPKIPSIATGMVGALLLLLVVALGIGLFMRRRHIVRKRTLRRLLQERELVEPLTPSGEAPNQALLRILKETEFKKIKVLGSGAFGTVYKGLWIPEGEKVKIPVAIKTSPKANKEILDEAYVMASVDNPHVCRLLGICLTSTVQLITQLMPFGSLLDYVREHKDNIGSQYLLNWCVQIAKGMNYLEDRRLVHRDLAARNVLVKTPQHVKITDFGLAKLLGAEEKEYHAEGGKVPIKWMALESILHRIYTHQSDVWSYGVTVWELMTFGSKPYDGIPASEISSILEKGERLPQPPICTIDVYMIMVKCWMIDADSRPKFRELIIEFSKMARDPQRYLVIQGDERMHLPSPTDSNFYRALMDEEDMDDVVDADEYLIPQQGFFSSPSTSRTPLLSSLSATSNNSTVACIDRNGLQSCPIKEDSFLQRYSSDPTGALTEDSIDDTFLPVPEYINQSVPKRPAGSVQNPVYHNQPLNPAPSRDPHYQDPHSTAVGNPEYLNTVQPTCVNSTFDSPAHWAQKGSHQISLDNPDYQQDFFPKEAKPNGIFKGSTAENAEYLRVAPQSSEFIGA
# EGFR L858R/T790M/C797S, sequence (P00533 25-1210 T790M/C797S/L858R): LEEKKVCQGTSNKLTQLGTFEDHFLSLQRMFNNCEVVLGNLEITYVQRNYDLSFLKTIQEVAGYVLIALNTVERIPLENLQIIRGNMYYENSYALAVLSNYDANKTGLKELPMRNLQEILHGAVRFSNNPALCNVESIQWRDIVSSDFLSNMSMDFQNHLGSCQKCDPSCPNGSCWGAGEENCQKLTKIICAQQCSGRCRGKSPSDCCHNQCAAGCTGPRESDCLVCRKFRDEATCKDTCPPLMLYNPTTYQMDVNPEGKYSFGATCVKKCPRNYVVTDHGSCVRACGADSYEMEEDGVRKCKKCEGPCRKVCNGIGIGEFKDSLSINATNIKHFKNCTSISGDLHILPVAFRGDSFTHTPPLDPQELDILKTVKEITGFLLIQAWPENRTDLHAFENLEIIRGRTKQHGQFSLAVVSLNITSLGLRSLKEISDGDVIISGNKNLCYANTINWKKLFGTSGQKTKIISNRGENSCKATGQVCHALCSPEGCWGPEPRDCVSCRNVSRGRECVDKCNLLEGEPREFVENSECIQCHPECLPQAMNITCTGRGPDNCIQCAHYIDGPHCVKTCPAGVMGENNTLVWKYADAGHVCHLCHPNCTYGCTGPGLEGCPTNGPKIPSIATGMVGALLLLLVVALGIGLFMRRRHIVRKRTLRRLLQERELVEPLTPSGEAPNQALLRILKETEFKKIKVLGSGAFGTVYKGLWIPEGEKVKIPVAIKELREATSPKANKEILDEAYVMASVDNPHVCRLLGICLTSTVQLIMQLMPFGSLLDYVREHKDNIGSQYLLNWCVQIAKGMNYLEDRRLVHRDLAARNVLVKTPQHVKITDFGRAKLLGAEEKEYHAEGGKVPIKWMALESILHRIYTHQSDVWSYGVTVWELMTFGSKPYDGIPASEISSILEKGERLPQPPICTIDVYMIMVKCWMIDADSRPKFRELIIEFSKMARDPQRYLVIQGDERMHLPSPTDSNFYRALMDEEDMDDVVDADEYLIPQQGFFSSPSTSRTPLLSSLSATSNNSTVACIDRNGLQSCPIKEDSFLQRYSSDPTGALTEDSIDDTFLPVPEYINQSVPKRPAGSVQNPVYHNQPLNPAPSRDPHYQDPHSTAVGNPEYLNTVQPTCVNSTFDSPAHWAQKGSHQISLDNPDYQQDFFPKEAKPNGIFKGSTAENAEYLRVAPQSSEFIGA
# EGFR wildtype, sequence (P00533 25-1210): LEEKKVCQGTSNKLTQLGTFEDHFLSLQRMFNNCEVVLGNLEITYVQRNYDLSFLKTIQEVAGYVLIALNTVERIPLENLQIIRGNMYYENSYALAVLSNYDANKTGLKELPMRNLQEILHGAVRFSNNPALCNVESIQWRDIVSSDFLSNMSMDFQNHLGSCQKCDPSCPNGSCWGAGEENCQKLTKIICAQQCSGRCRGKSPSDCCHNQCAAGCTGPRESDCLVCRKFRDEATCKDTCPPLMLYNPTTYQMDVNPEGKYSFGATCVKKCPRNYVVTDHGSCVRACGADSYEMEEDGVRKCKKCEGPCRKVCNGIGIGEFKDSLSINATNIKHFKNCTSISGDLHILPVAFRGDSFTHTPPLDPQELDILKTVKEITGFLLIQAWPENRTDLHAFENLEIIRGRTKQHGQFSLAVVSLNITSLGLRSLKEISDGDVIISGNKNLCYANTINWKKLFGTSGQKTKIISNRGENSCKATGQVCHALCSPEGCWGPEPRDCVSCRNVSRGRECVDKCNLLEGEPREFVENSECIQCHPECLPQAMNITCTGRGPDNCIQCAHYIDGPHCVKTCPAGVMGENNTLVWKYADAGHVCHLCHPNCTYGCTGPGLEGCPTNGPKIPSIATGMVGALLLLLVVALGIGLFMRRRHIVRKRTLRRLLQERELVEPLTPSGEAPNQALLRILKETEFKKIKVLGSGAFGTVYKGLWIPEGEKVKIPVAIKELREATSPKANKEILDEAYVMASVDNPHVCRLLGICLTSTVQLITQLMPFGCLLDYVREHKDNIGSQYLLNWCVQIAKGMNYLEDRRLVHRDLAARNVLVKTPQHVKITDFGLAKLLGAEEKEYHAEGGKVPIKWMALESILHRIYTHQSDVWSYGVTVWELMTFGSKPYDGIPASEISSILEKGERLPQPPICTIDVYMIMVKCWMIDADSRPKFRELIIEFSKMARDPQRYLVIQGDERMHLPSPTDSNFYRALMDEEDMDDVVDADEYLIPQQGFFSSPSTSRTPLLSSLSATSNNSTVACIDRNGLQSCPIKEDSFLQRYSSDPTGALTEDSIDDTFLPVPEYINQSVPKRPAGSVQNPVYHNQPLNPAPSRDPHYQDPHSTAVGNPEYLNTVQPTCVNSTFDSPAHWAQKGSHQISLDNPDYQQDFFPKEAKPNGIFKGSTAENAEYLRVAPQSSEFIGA
# EGFR del19/T790M/C797S, sequence (P00533 with tags, fused parts or gaps DEL746-750/T790M/C797S): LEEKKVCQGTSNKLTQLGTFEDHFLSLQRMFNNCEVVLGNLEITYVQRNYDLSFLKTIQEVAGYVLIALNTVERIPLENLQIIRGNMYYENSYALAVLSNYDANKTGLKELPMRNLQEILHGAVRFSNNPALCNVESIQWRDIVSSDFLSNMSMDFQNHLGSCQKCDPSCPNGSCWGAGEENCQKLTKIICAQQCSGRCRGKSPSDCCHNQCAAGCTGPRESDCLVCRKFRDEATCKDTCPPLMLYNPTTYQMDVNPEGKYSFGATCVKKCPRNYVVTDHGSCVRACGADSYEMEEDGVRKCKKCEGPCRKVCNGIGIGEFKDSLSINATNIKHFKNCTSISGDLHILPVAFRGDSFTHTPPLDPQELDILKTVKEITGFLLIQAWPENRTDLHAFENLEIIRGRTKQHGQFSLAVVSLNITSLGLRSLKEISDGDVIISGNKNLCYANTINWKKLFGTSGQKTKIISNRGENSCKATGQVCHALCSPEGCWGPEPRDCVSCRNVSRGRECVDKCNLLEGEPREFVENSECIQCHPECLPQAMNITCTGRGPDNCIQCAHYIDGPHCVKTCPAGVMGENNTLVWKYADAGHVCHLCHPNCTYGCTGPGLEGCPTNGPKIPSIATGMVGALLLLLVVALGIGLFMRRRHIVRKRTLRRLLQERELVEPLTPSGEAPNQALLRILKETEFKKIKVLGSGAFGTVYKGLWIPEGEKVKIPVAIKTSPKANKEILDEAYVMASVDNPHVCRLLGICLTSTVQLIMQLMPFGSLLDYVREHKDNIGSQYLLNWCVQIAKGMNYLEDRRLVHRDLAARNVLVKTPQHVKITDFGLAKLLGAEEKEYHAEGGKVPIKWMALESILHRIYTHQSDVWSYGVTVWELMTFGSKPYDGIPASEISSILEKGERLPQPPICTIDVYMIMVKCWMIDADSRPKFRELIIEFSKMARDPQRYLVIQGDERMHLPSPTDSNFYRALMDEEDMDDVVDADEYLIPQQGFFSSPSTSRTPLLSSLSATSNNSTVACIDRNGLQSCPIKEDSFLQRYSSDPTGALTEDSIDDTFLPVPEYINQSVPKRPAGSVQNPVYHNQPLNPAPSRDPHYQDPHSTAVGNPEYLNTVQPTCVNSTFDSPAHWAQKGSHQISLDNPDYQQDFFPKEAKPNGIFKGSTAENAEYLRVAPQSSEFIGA
IC50 (EGFR del19/C797S; [1]) [nM],"IC50 (EGFR del19/C797S; IC50 del19/C797S, 100 μM ATP) [nM]",IC50 (EGFR wildtype; [2]) [nM],"IC50 (EGFR wildtype; IC50 WT, 100 μM ATP) [nM]",IC50 (EGFR L858R/T790M/C797S; [3]) [nM],IC50 (EGFR L858R/T790M/C797S; [4]) [nM],IC50 (EGFR del19/T790M/C797S; [5]) [nM],IC50 (EGFR del19/T790M/C797S; [6]) [nM],IC50 (EGFR L858R/C797S; [7]) [nM],"IC50 (EGFR L858R/C797S; IC50 L858R/C797S, 100 μM ATP) [nM]",IC50 (EGFR del19/C797S; [8]) [nM],IC50 (EGFR wildtype; [9]) [nM],IC50 (EGFR L858R/T790M/C797S; [10]) [nM],IC50 (EGFR del19/T790M/C797S; [11]) [nM],IC50 (EGFR L858R/C797S; [12]) [nM],IC50 (EGFR del19/C797S; [13]) [nM],IC50 (EGFR wildtype; [14]) [nM],IC50 (EGFR L858R/T790M/C797S; [15]) [nM],IC50 (EGFR del19/T790M/C797S; [16]) [nM],IC50 (EGFR L858R/C797S; [17]) [nM],SMILES
3.8,,61.6,,0.1,,0.1,,0.6,,,,,,,,,,,,"CN1CCC(Oc2ccc(-c3cnc(Nc4ccnc(-c5cnn(S(=O)(=O)C6CC6)c5)n4)cc3NC3CCN(CCF)CC3)nc2)CC1 [Example 256, N^6′-(2-(1-(Cyclopropylsulfonyl)-1H-pyrazol-4-yl)pyrimidin-4-yl)-N^4′-(1-(2-fluoroethyl)piperidin-4-yl)-5-((1-methylpiperidin-4-yl)oxy)-[2,3′-bipyridine]-4′,6′-diamine]"
,,,,,,,,,,0.2,0.7,0.2,0.3,0.03,0.7,198,0.2,0.5,0.4,"CC(C)(O)c1ccnc(-c2cnc(Nc3ccnc(-c4cnn(S(=O)(=O)C5CC5)c4)n3)cc2N[C@H]2CC[C@@H](CO)CC2)c1 [Example 111, 2-(6′-((2-(1-(Cyclopropylsulfonyl)-1H-pyrazol-4-yl)pyrimidin-4-yl)amino)-4′-(((1s,4s)-4-(hydroxymethyl)cyclohexyl)amino)-[2,3′-bipyridin]-4-yl)propan-2-ol]"
,,,,,,,,,,0.3,,0.03,0.1,0.4,0.2,1360,0.1,0.1,2.3,"C[C@]1(O)CC[C@@H](Nc2cc(Nc3ccnc(-c4cnn(S(=O)(=O)C5CC5)c4)n3)ncc2-c2cccnn2)CC1 [Example 42, (1s,4s)-4-((2-((2-(1-(Cyclopropylsulfonyl)-1H-pyrazol-4-yl)pyrimidin-4-yl)amino)-5-(pyridazin-3-yl)pyridin-4-yl)amino)-1-methylcyclohexan-1-ol]"
,,,,,,,,,,8,97.7,,,1.7,7.2,> 10000,1.1,1.1,56.4,"CN1CCN(c2ccnc(-c3cnc(Nc4ccnc(-c5cnn(S(=O)(=O)C6CC6)c5)n4)cc3N[C@H]3CC[C@@](C)(O)CC3)c2)CC1 [Example 58, (1s,4s)-4-((6′-((2-(1-(Cyclopropylsulfonyl)-1H-pyrazol-4-yl)pyrimidin-4-yl)amino)-4-(4-methylpiperazin-1-yl)-[2,3′-bipyridin]-4′-yl)amino)-1-methylcyclohexan-1-ol]"
,,,,,,,,,,0.4,6.8,0.2,0.2,0.4,0.5,> 10000,0.4,0.2,4.2,"C[C@]1(O)CC[C@@H](Nc2cc(Nc3ccnc(-c4cnn(S(=O)(=O)C5CC5)c4)n3)ncc2-c2cnc(CO)cn2)CC1 [Example 60, (1s,4s)-4-((2-((2-(1-(Cyclopropylsulfonyl)-1H-pyrazol-4-yl)pyrimidin-4-yl)amino)-5-(5-(hydroxymethyl)pyrazin-2-yl)pyridin-4-yl)amino)-1-methylcyclohexan-1-ol]"
,,,,,,,,,,0.3,2.4,0.1,0.1,0.1,0.2,1140,0.3,0.1,0.9,"CN(C)Cc1cnc(-c2cnc(Nc3ccnc(-c4cnn(S(=O)(=O)C5CC5)c4)n3)cc2N[C@H]2CC[C@@](C)(O)CC2)cn1 [Example 65, (1s,4s)-4-((2-((2-(1-(Cyclopropylsulfonyl)-1H-pyrazol-4-yl)pyrimidin-4-yl)amino)-5-(5-((dimethylamino)methyl)pyrazin-2-yl)pyridin-4-yl)amino)-1-methylcyclohexan-1-ol]"

# Continued, compound first:
SMILES,IC50 (EGFR del19/C797S; [1]) [nM],"IC50 (EGFR del19/C797S; IC50 del19/C797S, 100 μM ATP) [nM]",IC50 (EGFR wildtype; [2]) [nM],"IC50 (EGFR wildtype; IC50 WT, 100 μM ATP) [nM]",IC50 (EGFR L858R/T790M/C797S; [3]) [nM],IC50 (EGFR L858R/T790M/C797S; [4]) [nM],IC50 (EGFR del19/T790M/C797S; [5]) [nM],IC50 (EGFR del19/T790M/C797S; [6]) [nM],IC50 (EGFR L858R/C797S; [7]) [nM],"IC50 (EGFR L858R/C797S; IC50 L858R/C797S, 100 μM ATP) [nM]",IC50 (EGFR del19/C797S; [8]) [nM],IC50 (EGFR wildtype; [9]) [nM],IC50 (EGFR L858R/T790M/C797S; [10]) [nM],IC50 (EGFR del19/T790M/C797S; [11]) [nM],IC50 (EGFR L858R/C797S; [12]) [nM],IC50 (EGFR del19/C797S; [13]) [nM],IC50 (EGFR wildtype; [14]) [nM],IC50 (EGFR L858R/T790M/C797S; [15]) [nM],IC50 (EGFR del19/T790M/C797S; [16]) [nM],IC50 (EGFR L858R/C797S; [17]) [nM]
"O=S(=O)(C1CC1)n1cc(-c2nccc(Nc3cc(N[C@H]4CCC[C@H](CO)C4)c(-c4ccc(CC(F)(F)F)cn4)cn3)n2)cn1 [Example 222, ((1S,3S)-3-((6′-((2-(1-(Cyclopropylsulfonyl)-1H-pyrazol-4-yl)pyrimidin-4-yl)amino)-5-(2,2,2-trifluoroethyl)-[2,3′-bipyridin]-4′-yl)amino)cyclohexyl)methanol]",8.9,16.8,37.4,> 10000,1.7,2,3.9,3.4,11.7,296,,,,,,,,,,
"O=S(=O)(C1CC1)n1cc(-c2nccc(Nc3cc(N[C@H]4CCC[C@H](CO)C4)c(-c4ccc(C(O)C(F)(F)F)cn4)cn3)n2)cn1 (stereo partly drawn) [Example 228, 1-(6′-((2-(1-(Cyclopropylsulfonyl)-1H-pyrazol-4-yl)pyrimidin-4-yl)amino)-4′-(((1S,3S)-3-(hydroxymethyl)cyclohexyl)amino)-[2,3′-bipyridin]-5-yl)-2,2,2-trifluoroethan-1-ol]",5.6,14.3,19.3,> 10000,0.5,1,1.9,2.9,12.2,64.9,,,,,,,,,,
"CC(O)(c1ccc(-c2cnc(Nc3ccnc(-c4cnn(S(=O)(=O)C5CC5)c4)n3)cc2NC2CCC(F)CC2)nc1)C(F)(F)F (stereo not shown) [Example 266, 2-(6′-((2-(1-(Cyclopropylsulfonyl)-1H-pyrazol-4-yl)pyrimidin-4-yl)amino)-4′-((4-fluorocyclohexyl)amino)-[2,3′-bipyridin]-5-yl)-1,1,1-trifluoropropan-2-ol]",12.5,,168,,18.6,,33,,39.6,,,,,,,,,,,
"CN1CCC(Oc2ccc(-c3cnc(Nc4ccnc(-c5cnn(CC(F)F)c5)n4)cc3NC3CCC(F)(F)C3)nc2)CC1 (stereo not shown) [Example 138, N^4′-(3,3-Difluorocyclopentyl)-N^6′-(2-(1-(2,2-difluoroethyl)-1H-pyrazol-4-yl)pyrimidin-4-yl)-5-((1-methylpiperidin-4-yl)oxy)-[2,3′-bipyridine]-4′,6′-diamine]",,,,,,,,,,,4.9,32,0.2,0.1,1.6,,,,,
"COC1CN(c2ccc(-c3cnc(Nc4ccnc(-c5cnn(S(=O)(=O)C6CC6)c5)n4)cc3N[C@H]3CC[C@@H](C(C)(C)O)CC3)nc2)C1 [Example 92, 2-((1s,4s)-4-((6′-((2-(1-(Cyclopropylsulfonyl)-1H-pyrazol-4-yl)pyrimidin-4-yl)amino)-5-(3-methoxyazetidin-1-yl)-[2,3′-bipyridin]-4′-yl)amino)cyclohexyl)propan-2-ol]",,,,,,,,,,,4.4,0.1,1.4,1,4.7,7.2,172,2.3,1.6,78.8
"O=S(=O)(C1CC1)n1cc(-c2nccc(Nc3cc(N[C@H]4CC[C@@H](CO)CC4)c(-c4cnc(N5CCC(F)(F)CC5)cn4)cn3)n2)cn1 [Example 70, ((1s,4s)-4-((2-((2-(1-(Cyclopropylsulfonyl)-1H-pyrazol-4-yl)pyrimidin-4-yl)amino)-5-(5-(4,4-difluoropiperidin-1-yl)pyrazin-2-yl)pyridin-4-yl)amino)cyclohexyl)methanol]",,,,,,,,,,,,,,,,13.1,> 10000,4.9,3.9,81.1
"O=S(=O)(C1CC1)n1cc(-c2nccc(Nc3cc(N[C@H]4CC[C@@H](CO)CC4)c(-c4ccc(N5CCC(F)(F)CC5)nn4)cn3)n2)cn1 [Example 69, ((1s,4s)-4-((2-((2-(1-(Cyclopropylsulfonyl)-1H-pyrazol-4-yl)pyrimidin-4-yl)amino)-5-(6-(4,4-difluoropiperidin-1-yl)pyridazin-3-yl)pyridin-4-yl)amino)cyclohexyl)methanol]",,,,,,,,,,,2.4,14.5,0.8,1.9,1.4,5.3,4780,1.4,1.6,52.7
"CN1CCC(Oc2ccc(-c3cnc(Nc4ccnc(-c5cnn(S(=O)(=O)C6CC6)c5)n4)cc3N[C@H]3CCC[C@H](CO)C3)nc2)CC1 [Example 253, ((1S,3S)-3-((6′-((2-(1-(Cyclopropylsulfonyl)-1H-pyrazol-4-yl)pyrimidin-4-yl)amino)-5-((1-methylpiperidin-4-yl)oxy)-[2,3′-bipyridin]-4′-yl)amino)cyclohexyl)methanol]",0.4,,1,,0.4,,0.7,,0.2,,,,,,,,,,,
